Source: publication PMC4552634, “A New Set of Chemical Starting Points with Plasmodium falciparum Transmission-Blocking Potential for Antimalarial Drug Discovery” (PLoS ONE, 2015)
pIC50: −log10 of the molar value.

tested on: P. falciparum stage V gametocytes; test: Gametocytocidal ATP bioluminescence assay (single point 5 μM and 1 μM, dose-response); format: cell-based, Plasmodium falciparum; conditions: P. falciparum gametocytes, 5 μM single concentration, 48 h, decrease of ATP level (S1 Table)
Protocol: Purified stage IV-V gametocytes were obtained as previously described [10]. Single point ATP bioluminescence assay and dose–response of positive hits was determined in accordance with the previously published protocol [10].

Row | Structure (SMILES) | % Inhibition [%]
1 | O=C(Nc1ccc(OC2CCN(Cc3ccccc3)CC2)c(Cl)c1)c1ccco1 [TCMDC-133966] | 63
2 | Clc1ccc2c(NCCc3ccccn3)ccnc2c1 [TCMDC-123461] | 8
3 | COc1cc2nc(C)nc(Nc3ccc(Cc4ccccc4)cc3)c2cc1OC [TCMDC-131941] | 1.46
4 | Cc1nc(C)c(CC(=O)Nc2cccc(-c3cccc(-c4nc5ccc(C(F)(F)F)cc5[nH]4)c3)c2)s1 [TCMDC-136995] | 4.51
5 | Cc1cccc(CN2CCC(Oc3ccc(NC(=O)c4cccs4)cc3Cl)CC2)n1 [TCMDC-133964] | 24
6 | COc1ccc2nccc([C@@H](O)CN3CCC(NCc4nc5c(OCc6ccccc6)cccc5[nH]4)CC3)c2c1 [TCMDC-141083] | 34
7 | CC(=O)c1c(C)[nH]c(C(=O)Nc2ccc(-c3nc4ccc(C)cc4s3)cc2)c1C [TCMDC-124493] | 55
8 | N#Cc1c(N2CCN(c3ccc(F)cc3)CC2)nc(N)c2c(N)nc3c(c12)CC(=O)N3C1CC1 [TCMDC-124490] | 44
9 | Cc1cccc2nc(-c3cccc(-c4cccc(NC(=O)Cc5ccc[n+]([O-])c5)c4)c3)[nH]c12 [TCMDC-136992] | 25
10 | CCCCCCNC(=O)C1Cc2c([nH]c3ccccc23)C2(CCN(CCc3ccccc3)CC2)N1 (stereo not shown) [TCMDC-141085] | -58
11 | COc1ccc2nccc([C@@H](O)CN3CCC(NCc4ccc5scnc5c4)CC3)c2c1 [TCMDC-141081] | 10
12 | Cc1ccnc2nc(C(=O)Nc3cc(C(F)(F)F)ccc3N3CCCCC3)nn12 [TCMDC-124492] | -24
13 | O=C(/C=C/c1ccc(Cl)c(Cl)c1)N1CCC(CCN2CCC(c3c[nH]c4ccncc34)CC2)CC1 [TCMDC-140075] | 91
14 | CN(Cc1cccc(C#N)c1)C1CCN(c2cc(NC(=O)c3ccc(F)cc3)ccn2)CC1 [TCMDC-134974] | -6
15 | COc1cc(C(=O)NC2CCN(Cc3ccccc3)CC2)ccc1-c1nc2cc(Cl)c(Cl)cc2[nH]1 [TCMDC-140078] | -56
16 | O=C(Nc1ccc(CN2CCC(c3c[nH]c4ccc(O)cc34)CC2)cc1)c1ccc(-c2ccccc2)cc1 [TCMDC-139068] | -139
17 | C1=C(c2c[nH]c3ccccc23)CCN(Cc2ccccc2)C1 [TCMDC-123457] | -71
18 | Cc1nc(C)c(CC(=O)Nc2ccc(-c3cccc(-c4nc5ccc(C(F)(F)F)cc5[nH]4)c3)cc2)s1 [TCMDC-136996] | -50
19 | OC(CN1CCN(c2cccc(Cl)c2)CC1)C(c1ccccc1)c1ccccc1 (stereo not shown) [TCMDC-123456] | 0.238
20 | CC(C)(C)c1ccc(NC(=O)c2cccc(CN3CCCN(Cc4ccc(F)cc4)CC3)c2)cc1 [TCMDC-135985] | -30

Row | Structure (SMILES) | % Inhibition [%]
21 | Cc1ccc(Oc2ncccc2C(=O)Nc2cccc3cccnc23)c(C)c1 [TCMDC-125499] | -13
22 | CCOc1ccc(NC(=O)c2cccc(CN3CCCN(Cc4cccc(O)c4)CC3)c2)cc1 [TCMDC-135987] | -5
23 | COc1ccc(NC2=C(c3ccccc3)C(=O)c3ccccc32)cn1 [TCMDC-125501] | 37
24 | Clc1ccc(-c2nc3ccc(-c4ccc5nc(-c6ccc(Cl)cc6)[nH]c5c4)cc3[nH]2)cc1 [TCMDC-123460] | 1.65
25 | COC(=O)CCCCOc1cc(Cc2cnc(N)nc2N)cc(OC)c1OC [TCMDC-138041] | 2
26 | CN(c1cc(NC(=O)c2cccs2)ccn1)C1CCN(Cc2cccc(C#N)c2)CC1 [TCMDC-134970] | 40
27 | COc1ccc(CN2CCCN(Cc3cccc(C(=O)Nc4ccc(C(C)(C)C)cc4)c3)CC2)cc1 [TCMDC-135986] | 5.59
28 | C=CCc1cc(Cc2cnc(N)nc2N)cc(CCC)c1OC [TCMDC-138039] | 23
29 | O=C(NCCCN1CCN(c2cccc(Cl)c2)CC1)c1ccc(-c2nc3cc(Cl)c(Cl)cc3[nH]2)cc1 [TCMDC-140077] | 1.64
30 | CNC(=O)c1cc(NCCCNCc2ccc(Cl)c(C(F)(F)F)c2)nc2ccccc12 [TCMDC-141082] | 73
31 | Cc1cccc(C(=O)Nc2ccnc(N3CCC(N(C)Cc4cccc(C#N)c4)CC3)c2)c1 [TCMDC-134973] | -4.57
32 | CN(CC(=O)Nc1ccc(F)c(F)c1F)c1ncnc2sc(-c3ccccc3)cc12 [TCMDC-124491] | 23
33 | CC(CN1CCN(CC(c2ccc(F)cc2)N2CCN(C)CC2)CC1)C(=O)c1ccc(O)cc1.O=C(O)/C=C\C(=O)O (stereo not shown) [TCMDC-125496] | 30
34 | Ic1cc(Nc2ncnc3ccsc23)ccc1OCc1ccccc1 [TCMDC-131945] | 8
35 | N=C(N)c1ccc(-c2cc3ccc(C(=N)N)cc3[nH]2)cc1 [TCMDC-123458] | 53
36 | Cc1cc(NC(=O)c2ccco2)ccc1OC1CCN(Cc2ccccc2)CC1 [TCMDC-133965] | 12
37 | CC(C)NC(C)(C)CN(Cc1ccc(-c2ccc(C(F)(F)F)cc2)cc1)C(=O)Cn1c(CCc2cccc(F)c2F)nc(=O)c2ccccc21 [TCMDC-141084] | 72
38 | COc1cc2ncnc(Nc3ccc(OCc4ccccc4)c(I)c3)c2cc1OC [TCMDC-131944] | -25
39 | CC1CCN(C(=O)C(Cc2c[nH]c3ccccc23)NS(=O)(=O)c2ccc(Cl)cc2)CC1 (stereo not shown) [TCMDC-124494] | 54
40 | COc1cc(Cc2cnc(N)nc2N)c2c(c1OC)OC(C)(C)C=C2 [TCMDC-138038] | -2.79

Row | Structure (SMILES) | % Inhibition [%]
41 | Nc1nc(N)c2c(Sc3ccccc3)cccc2n1 [TCMDC-131943] | 9
42 | CCc1ccc(NC(=O)c2cccc(CN3CCCN(CC4CCCCC4)CC3)c2)cc1 [TCMDC-135988] | -39
43 | COc1cc(Cc2cnc(N)nc2N)cc(OCCCC#N)c1OC [TCMDC-138040] | -4.21
44 | Cc1cc(NC(=O)c2cccs2)ccc1OC1CCN(Cc2ccccc2)C1 (stereo not shown) [TCMDC-133968] | -2.76
45 | O=C1C(c2ccccc2)=C(Nc2cccc(OC(F)(F)C(F)F)c2)c2ccccc21 [TCMDC-125498] | 66
46 | C=CCOc1cc(Cc2cnc(N)nc2N)cc(OC)c1OC [TCMDC-138042] | -4
47 | Cc1cc(NC(=O)Nc2ccc3nc(C)oc3c2)c2cc(Cl)ccc2n1 [TCMDC-140076] | 38
48 | Nc1ccnc2ccc(NC(=O)CCCCCc3ccccc3)cc12 [TCMDC-139070] | 2
49 | COc1ccc2[nH]cc(C3CCN(Cc4ccc(NC(=O)c5ccc(-c6ccccc6)cc5)cc4)CC3)c2c1 [TCMDC-139069] | 8
50 | CC(=O)Nc1ccc(CN2CCC(N(C)c3cc(NC(=O)c4cccs4)ccn3)CC2)cc1 [TCMDC-134971] | -7
51 | O=C(Nc1ccc(OC2CCN(Cc3ccccc3)CC2)c(Cl)c1)c1ccc(F)cc1 [TCMDC-133967] | 19
52 | COc1ccc(Cl)cc1NC(=O)Nc1cc(C)nc2ccccc12 [TCMDC-125497] | -50
53 | CO/C(=C\C=C\c1cc2cc(Cl)c(Cl)cc2[nH]1)C(=O)NC1CC2CCCC(C1)N2C (stereo not shown) [TCMDC-139067] | 19
54 | Cc1cccc(CN2CCCN(Cc3cccc(C(=O)Nc4ccc(C(C)(C)C)cc4)c3)CC2)c1 [TCMDC-135984] | -91
55 | COc1cc(C(=O)NCCCN2CCN(c3cc(Cl)ccc3OC)CC2)ccc1-c1nc2cc(Cl)c(Cl)cc2[nH]1 [TCMDC-140079] | 4.42
56 | Cc1cccc2nc(-c3cccc(-c4ccc(NC(=O)Cc5ccc[n+]([O-])c5)cc4)c3)[nH]c12 [TCMDC-136993] | -16
57 | Nc1nc(N)c2c(ccc3ccccc32)n1 [TCMDC-131942] | 19
58 | CNc1c2c(nc3ccc(NC(=O)CCCCCCc4ccccc4)cc13)CCCC2 [TCMDC-139066] | 79
59 | CN(Cc1cccc(C#N)c1)C1CCN(c2cc(NC(=O)c3cccc(F)c3)ccn2)CC1 [TCMDC-134972] | 21

same assay, conditions: P. falciparum gametocytes; average; read-out: IC50 Pf Gametocytes average, IC50 (µM) average

Row | Structure (SMILES) | IC50 [µM]
60 | CCN(CC)/C(=N/C(=N)NCc1ccc(Cl)cc1Cl)NCCCCCCN/C(=N\C(=N)NCc1ccc(Cl)cc1Cl)N(CC)CC [TCMDC-131819] | 0.3

same assay, conditions: Plasmodium falciparum; P. falciparum gametocytes, 5 μM single concentration, 48 h, decrease of ATP level (S1 Table)

Row | Structure (SMILES) | inhibition at 5 µM [%]
61 | Cc1cccc2nc(-c3cccc(-c4cccc(CNCc5cnn(-c6ccccc6)n5)c4)c3)[nH]c12 [TCMDC-132963] | 8
62 | FC(F)(F)c1ccc2[nH]c(-c3cccc(-c4ccc(CNCc5cnn(-c6ccccc6)n5)cc4)c3)nc2c1 [TCMDC-132964] | 25
63 | COC(=O)c1cccc(CNCc2cccc(-c3cccc(-c4nc5ccccc5[nH]4)c3)c2)c1 [TCMDC-132961] | 33
64 | COC(=O)c1cccc(CNCc2cccc(-c3cccc(-c4nc5cc(F)ccc5[nH]4)c3)c2)c1 [TCMDC-132960] | 6
65 | Cc1nc(C)c(CC(=O)Nc2ccc(-c3ccc(-c4nc5cc(C(F)(F)F)ccc5[nH]4)s3)cc2)s1 [TCMDC-136994] | 7
66 | c1ccc(-n2ncc(CNCc3ccc(-c4ccc(-c5nc6ccccc6[nH]5)s4)cc3)n2)cc1 [TCMDC-132962] | 1

same assay, conditions: Plasmodium falciparum; gametocytes, primary screen at 5 μM (S9 Table, CSA analogs)

Row | Structure (SMILES) | inhibition at 5 µM [%]
67 | CN(C)CCNCc1ccc(-c2ccc(-c3nc4ccccc4[nH]3)s2)cc1 [TCMDC-132683] | 58.1
68 | c1ccc2[nH]c(-c3ccc(-c4ccc(CNC5CC5)cc4)s3)nc2c1 [TCMDC-132675] | -17.6
69 | CNCCNCc1ccc(-c2ccc(-c3nc4ccccc4[nH]3)s2)cc1 [TCMDC-132824] | 82.1
70 | CC(C)CN(C)Cc1ccc(-c2ccc(-c3nc4ccccc4[nH]3)s2)cc1 [TCMDC-136786] | -17.4

same assay, conditions: gametocytes, primary screen at 5 μM (S10 Table, MCSI analogs)

Row | Structure (SMILES) | %_Inh [%]
71 | Cc1cccc2nc(-c3ccc(-c4ccc(CN5CCN(C6CCN(C)CC6)CC5)cc4)s3)[nH]c12 [TCMDC-133866] | 106.989
72 | Cc1cccc2nc(-c3ccc(-c4cccc(CNCc5ccc(CN)cc5)c4)s3)[nH]c12.O=C(O)C(F)(F)F [TCMDC-132812] | 115.306

tested on: P. falciparum asexual stages; test: not given; conditions: asexual stages; TCAMS data; read-out: IC50 asexual; cited from earlier work

Row | Structure (SMILES) | pIC50
73 | CCN(CC)/C(=N/C(=N)NCc1ccc(Cl)cc1Cl)NCCCCCCN/C(=N\C(=N)NCc1ccc(Cl)cc1Cl)N(CC)CC [TCMDC-131819] | 6.66
